According to ChEMBL document CHEMBL1201862, “PubChem BioAssay data set” (2004):
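Cells were grown in 96-well plates and exposed to each compound for 48 hours at five concentrations; endpoints were interpolated linearly between bracketing concentrations, or set to the highest concentration if not reached. The concentration for 50% growth inhibition is given as GI50.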 The source made the active and inactive calls. Cut-off read from the data, not from the text of the source: active = GI50 up to about 1.1 µM and inactive = higher.

Legend:
Assay in all cases: DTP human tumour cell line panel, 48 h
786-0 = tested on: 786-0
A498 = tested on: A498
A549 = tested on: A549
ACHN = tested on: ACHN
BT-549 = tested on: BT-549
CAKI-1 = tested on: CAKI-1
CCRF-CEM = tested on: CCRF-CEM
COLO 205 = tested on: COLO 205
DU-145 = tested on: DU-145
EKVX = tested on: EKVX
HCC 2998 = tested on: HCC 2998
HCT-116 = tested on: HCT-116
HCT-15 = tested on: HCT-15
HL-60 = tested on: HL-60
HOP-62 = tested on: HOP-62
HOP-92 = tested on: HOP-92
HT-29 = tested on: HT-29
Hs-578T = tested on: Hs-578T
IGROV-1 = tested on: IGROV-1
K562 = tested on: K562
KM12 = tested on: KM12
LOX IMVI = tested on: LOX IMVI
M14 = tested on: M14
MCF7 = tested on: MCF7
MDA-MB-231 = tested on: MDA-MB-231
MDA-MB-435 = tested on: MDA-MB-435
MDA-N = tested on: MDA-N
MOLT-4 = tested on: MOLT-4
Malme-3M = tested on: Malme-3M
NCI-H226 = tested on: NCI-H226
NCI-H23 = tested on: NCI-H23
NCI-H460 = tested on: NCI-H460
NCI-H522 = tested on: NCI-H522
NCI/ADR-RES = tested on: NCI/ADR-RES
OVCAR-3 = tested on: OVCAR-3
OVCAR-4 = tested on: OVCAR-4
OVCAR-5 = tested on: OVCAR-5
OVCAR-8 = tested on: OVCAR-8
PC-3 = tested on: PC-3
RPMI-8226 = tested on: RPMI-8226
RXF 393 = tested on: RXF 393
SF-268 = tested on: SF-268
SF-295 = tested on: SF-295
SF-539 = tested on: SF-539
SK-MEL-28 = tested on: SK-MEL-28
SK-MEL-2 = tested on: SK-MEL-2
SK-MEL-5 = tested on: SK-MEL-5
SK-OV-3 = tested on: SK-OV-3
SN12C = tested on: SN12C
SNB-19 = tested on: SNB-19
SNB-75 = tested on: SNB-75
SR = tested on: SR
SW-620 = tested on: SW-620
T47D = tested on: T47D
TK-10 = tested on: TK-10
U-251 = tested on: U-251
UACC-257 = tested on: UACC-257
UACC-62 = tested on: UACC-62
UO-31 = tested on: UO-31

## N=C(N)SCc1ccc2c(c1)Sc1ccccc1O2
786-0
  GI50: 4.76 µM (inactive)
A498
  GI50: 15.6 µM (inactive)
A549
  GI50: 6.73 µM (inactive)
ACHN
  GI50: 4.47 µM (inactive)
BT-549
  GI50: 3.62 µM (inactive)
CAKI-1
  GI50: 6.46 µM (inactive)
CCRF-CEM
  GI50: 6.78 µM (inactive)
COLO 205
  GI50: 2.36 µM (inactive)
DU-145
  GI50: 8.69 µM (inactive)
EKVX
  GI50: 11.6 µM (inactive)
HCC 2998
  GI50: 2.35 µM (inactive)
HCT-116
  GI50: 5.86 µM (inactive)
HCT-15
  GI50: 3.33 µM
HL-60
  GI50: 4.57 µM (inactive)
HOP-62
  GI50: 14.1 µM (inactive)
HOP-92
  GI50: 6.31 µM (inactive)
HT-29
  GI50: 2.9 µM (inactive)
Hs-578T
  GI50: 4.56 µM (inactive)
IGROV-1
  GI50: 3.34 µM (inactive)
K562
  GI50: 6.03 µM (inactive)
KM12
  GI50: 5.32 µM (inactive)
LOX IMVI
  GI50: 6 µM (inactive)
M14
  GI50: 2.16 µM (inactive)
MCF7
  GI50: 4.53 µM (inactive)
MDA-MB-231
  GI50: 10.3 µM (inactive)
MDA-MB-435
  GI50: 3.78 µM (inactive)
MDA-N
  GI50: 3.93 µM (inactive)
MOLT-4
  GI50: 7.71 µM (inactive)
Malme-3M
  GI50: 11.1 µM (inactive)
NCI-H226
  GI50: 11.2 µM (inactive)
NCI-H23
  GI50: 6.5 µM (inactive)
NCI-H460
  GI50: 6.79 µM (inactive)
NCI-H522
  GI50: 1.44 µM (inactive)
NCI/ADR-RES
  GI50: 6.65 µM (inactive)
OVCAR-3
  GI50: 4.69 µM (inactive)
OVCAR-4
  GI50: 6.87 µM (inactive)
OVCAR-5
  GI50: 11.6 µM (inactive)
OVCAR-8
  GI50: 10.6 µM (inactive)
PC-3
  GI50: 4.74 µM (inactive)
RPMI-8226
  GI50: 8.05 µM (inactive)
RXF 393
  GI50: 3.61 µM (inactive)
SF-268
  GI50: 13.1 µM (inactive)
SF-295
  GI50: 10.5 µM (inactive)
SF-539
  GI50: 2.07 µM (inactive)
SK-MEL-28
  GI50: 13.6 µM (inactive)
SK-MEL-2
  GI50: 5.12 µM (inactive)
SK-MEL-5
  GI50: 1.57 µM (inactive)
SK-OV-3
  GI50: 12.9 µM (inactive)
SN12C
  GI50: 8.95 µM (inactive)
SNB-19
  GI50: 11.4 µM (inactive)
SNB-75
  GI50: 5.65 µM (inactive)
SR
  GI50: 5.78 µM (inactive)
SW-620
  GI50: 5.85 µM (inactive)
T47D
  GI50: 8.07 µM (inactive)
TK-10
  GI50: 5.11 µM (inactive)
U-251
  GI50: 18.4 µM (inactive)
UACC-257
  GI50: 5.82 µM (inactive)
UACC-62
  GI50: 4.62 µM (inactive)
UO-31
  GI50: 3.37 µM (inactive)

## COc1ccc2nc3cc(Cl)ccc3c(Nc3ccc(O)c(CN4CCN(C)CC4)c3)c2c1
786-0
  GI50: 1.5 µM (inactive)
A498
  GI50: 4.51 µM (inactive)
A549
  GI50: 1.87 µM (inactive)
ACHN
  GI50: 1.64 µM (inactive)
BT-549
  GI50: 20.3 µM (inactive)
CAKI-1
  GI50: 1.92 µM (inactive)
CCRF-CEM
  GI50: 0.276 µM (active)
COLO 205
  GI50: 1.63 µM (inactive)
DU-145
  GI50: 1.9 µM (inactive)
EKVX
  GI50: 1.74 µM (inactive)
HCC 2998
  GI50: 1.19 µM (inactive)
HCT-116
  GI50: 1.75 µM (inactive)
HCT-15
  GI50: 2.31 µM
HL-60
  GI50: 1.95 µM (inactive)
HOP-62
  GI50: 2.06 µM (inactive)
HOP-92
  GI50: 1.72 µM (inactive)
HT-29
  GI50: 1.67 µM (inactive)
Hs-578T
  GI50: 1.89 µM (inactive)
IGROV-1
  GI50: 1.71 µM (inactive)
K562
  GI50: 1.59 µM (inactive)
KM12
  GI50: 1.91 µM (inactive)
LOX IMVI
  GI50: 1.71 µM (inactive)
M14
  GI50: 1.99 µM (inactive)
MCF7
  GI50: 1.64 µM (inactive)
MDA-MB-231
  GI50: 1.52 µM (inactive)
MDA-MB-435
  GI50: 1.62 µM (inactive)
MDA-N
  GI50: 1.67 µM (inactive)
MOLT-4
  GI50: 1.93 µM (inactive)
Malme-3M
  GI50: 1.79 µM (inactive)
NCI-H226
  GI50: 20.5 µM (inactive)
NCI-H23
  GI50: 1.89 µM (inactive)
NCI-H460
  GI50: 1.72 µM (inactive)
NCI-H522
  GI50: 1.78 µM (inactive)
NCI/ADR-RES
  GI50: 2.08 µM (inactive)
OVCAR-3
  GI50: 1.92 µM (inactive)
OVCAR-4
  GI50: 1.65 µM (inactive)
OVCAR-5
  GI50: 2.41 µM (inactive)
OVCAR-8
  GI50: 1.79 µM (inactive)
PC-3
  GI50: 1.67 µM (inactive)
RPMI-8226
  GI50: 1.9 µM (inactive)
RXF 393
  GI50: 1.69 µM (inactive)
SF-268
  GI50: 2.28 µM (inactive)
SF-295
  GI50: 1.91 µM (inactive)
SF-539
  GI50: 1.79 µM (inactive)
SK-MEL-28
  GI50: 1.92 µM (inactive)
SK-MEL-2
  GI50: 1.81 µM (inactive)
SK-MEL-5
  GI50: 1.73 µM (inactive)
SK-OV-3
  GI50: 5.79 µM (inactive)
SN12C
  GI50: 1.85 µM (inactive)
SNB-19
  GI50: 2.43 µM (inactive)
SNB-75
  GI50: 1.62 µM (inactive)
SR
  GI50: 0.676 µM (active)
SW-620
  GI50: 1.99 µM (inactive)
T47D
  GI50: 2.09 µM (inactive)
TK-10
  GI50: 1.97 µM (inactive)
U-251
  GI50: 1.67 µM (inactive)
UACC-257
  GI50: 1.86 µM (inactive)
UACC-62
  GI50: 1.72 µM (inactive)
UO-31
  GI50: 1.9 µM (inactive)

## O=C1C=C(C2=C(C3=CC(=O)c4ccccc4C3=O)C(=O)c3ccccc3C2=O)C(=O)c2ccccc21
786-0
  GI50: 2.9 µM (inactive)
A498
  GI50: 16.9 µM (inactive)
A549
  GI50: 9.48 µM (inactive)
ACHN
  GI50: 17.9 µM (inactive)
BT-549
  GI50: 14.6 µM (inactive)
CAKI-1
  GI50: 4.7 µM (inactive)
CCRF-CEM
  GI50: 0.286 µM (active)
COLO 205
  GI50: 3.94 µM (inactive)
DU-145
  GI50: 5.18 µM (inactive)
EKVX
  GI50: 11.1 µM (inactive)
HCC 2998
  GI50: 16.9 µM (inactive)
HCT-116
  GI50: 4.84 µM (inactive)
HCT-15
  GI50: 9.89 µM
HL-60
  GI50: 1.21 µM (inactive)
HOP-62
  GI50: 14.8 µM (inactive)
HOP-92
  GI50: 2.45 µM (inactive)
HT-29
  GI50: 3.12 µM (inactive)
Hs-578T
  GI50: 11.5 µM (inactive)
IGROV-1
  GI50: 2.15 µM (inactive)
K562
  GI50: 2.67 µM (inactive)
KM12
  GI50: 7 µM (inactive)
LOX IMVI
  GI50: 3.36 µM (inactive)
M14
  GI50: 8.87 µM (inactive)
MCF7
  GI50: 7.69 µM (inactive)
MDA-MB-231
  GI50: 3.07 µM (inactive)
MDA-MB-435
  GI50: 2.47 µM (inactive)
MDA-N
  GI50: 2.25 µM (inactive)
MOLT-4
  GI50: 0.389 µM (active)
Malme-3M
  GI50: 2.11 µM (inactive)
NCI-H226
  GI50: 13 µM (inactive)
NCI-H23
  GI50: 7.43 µM (inactive)
NCI-H460
  GI50: 14.8 µM (inactive)
NCI-H522
  GI50: 2.17 µM (inactive)
NCI/ADR-RES
  GI50: 11.1 µM (inactive)
OVCAR-3
  GI50: 2.84 µM (inactive)
OVCAR-4
  GI50: 6.03 µM (inactive)
OVCAR-5
  GI50: 11.8 µM (inactive)
OVCAR-8
  GI50: 5.62 µM (inactive)
PC-3
  GI50: 10.4 µM (inactive)
RPMI-8226
  GI50: 3.48 µM (inactive)
RXF 393
  GI50: 1.69 µM (inactive)
SF-268
  GI50: 12.6 µM (inactive)
SF-295
  GI50: 16.1 µM (inactive)
SF-539
  GI50: 8.28 µM (inactive)
SK-MEL-28
  GI50: 14 µM (inactive)
SK-MEL-2
  GI50: 17.2 µM (inactive)
SK-MEL-5
  GI50: 9.4 µM (inactive)
SK-OV-3
  GI50: 20.9 µM (inactive)
SN12C
  GI50: 7.26 µM (inactive)
SNB-19
  GI50: 14.4 µM (inactive)
SNB-75
  GI50: 9.46 µM (inactive)
SR
  GI50: 31.1 µM (inactive)
SW-620
  GI50: 3.79 µM (inactive)
T47D
  GI50: 6.19 µM (inactive)
TK-10
  GI50: 6.21 µM (inactive)
U-251
  GI50: 4.48 µM (inactive)
UACC-257
  GI50: 10.5 µM (inactive)
UACC-62
  GI50: 15.1 µM (inactive)
UO-31
  GI50: 2.85 µM (inactive)
